The target in the test is alpha-glucosidase (Saccharomyces cerevisiae). Briefly: Inhibition of Saccharomyces cerevisiae alpha-glucosidase activity using pNPG as substrate.

1 compound from BindingDB's records for PubMed 30125723 (n/a, 2018) can be followed below.

As a reminder, the IC50 is the midpoint of a concentration-inhibition curve. A low value points to higher potency. `O=C(CO)CCC(=O)c1nc(C(=O)O)cc2c1[nH]c1ccccc12` came in with an IC50 of 63 nM. That is a double-digit nanomolar value.
